We go through one molecule from paper PMC11950731 (Synthetic and Systems Biotechnology, 2025).

Assay [1] has as its system PpUGT91AH5. In words: LC-MS glucosyltransferase assay, varied trillin. The format is biochemical, Paris polyphylla. As to conditions: saturating UDP-glucose; assay buffer 50 mM Tris-HCl pH 8.0, 1 mM MgCl2, 37 °C.
The test system of assay [2] is PpUGT91AH4. In words: LC-MS glucosyltransferase assay, varied trillin. Format: biochemical, Paris polyphylla. To be noted: saturating UDP-glucose; assay buffer 50 mM Tris-HCl pH 8.0, 1 mM MgCl2, 37 °C.

In the case of `C[C@@H]1CC[C@@]2(OC1)O[C@H]1C[C@H]3[C@@H]4CC=C5C[C@@H](O[C@@H]6O[C@H](CO)[C@@H](O)[C@H](O)[C@H]6O)CC[C@]5(C)[C@H]4CC[C@]3(C)[C@H]1[C@@H]2C` [trillin], the values for the Km in assay [1] and in assay [2] were 7.81 ± 1.2 mM and 5.67 ± 0.84 mM, respectively.
